From ChEMBL document CHEMBL1134752 (Bioorg Med Chem Lett, 2001)

Tests used:
[1] = target: Prostaglandin G/H synthase 1 (Homo sapiens, UniProt P23219); test: In vitro inhibition of Prostaglandin G/H synthase 1 in human whole blood assay; format: tissue-based
[2] = target: T1, Prostaglandin G/H synthase 2 (Homo sapiens, UniProt P35354); test: In vitro inhibition of Prostaglandin G/H synthase 2 in human whole blood assay; format: tissue-based
T1 sequence (P35354 whole entry): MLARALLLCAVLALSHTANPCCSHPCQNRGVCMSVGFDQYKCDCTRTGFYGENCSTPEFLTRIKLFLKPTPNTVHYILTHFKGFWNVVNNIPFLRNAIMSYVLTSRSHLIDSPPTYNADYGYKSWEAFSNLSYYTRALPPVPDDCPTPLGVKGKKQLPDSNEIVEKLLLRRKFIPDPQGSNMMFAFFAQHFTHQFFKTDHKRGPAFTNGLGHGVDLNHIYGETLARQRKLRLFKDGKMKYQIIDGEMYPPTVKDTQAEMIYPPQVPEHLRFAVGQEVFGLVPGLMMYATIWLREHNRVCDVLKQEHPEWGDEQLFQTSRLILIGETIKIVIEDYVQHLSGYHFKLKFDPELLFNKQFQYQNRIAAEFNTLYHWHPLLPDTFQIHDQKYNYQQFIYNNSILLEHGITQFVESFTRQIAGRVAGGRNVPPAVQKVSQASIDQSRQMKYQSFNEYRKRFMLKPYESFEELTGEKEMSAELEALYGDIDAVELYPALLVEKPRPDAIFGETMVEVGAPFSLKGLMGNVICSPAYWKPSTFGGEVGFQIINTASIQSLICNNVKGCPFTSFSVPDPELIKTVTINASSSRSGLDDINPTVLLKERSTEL

[3] = Half-life in human; format: ADME, organism-based; conditions: in vivo

Sequence of Prostaglandin G/H synthase 1 (P23219 whole entry): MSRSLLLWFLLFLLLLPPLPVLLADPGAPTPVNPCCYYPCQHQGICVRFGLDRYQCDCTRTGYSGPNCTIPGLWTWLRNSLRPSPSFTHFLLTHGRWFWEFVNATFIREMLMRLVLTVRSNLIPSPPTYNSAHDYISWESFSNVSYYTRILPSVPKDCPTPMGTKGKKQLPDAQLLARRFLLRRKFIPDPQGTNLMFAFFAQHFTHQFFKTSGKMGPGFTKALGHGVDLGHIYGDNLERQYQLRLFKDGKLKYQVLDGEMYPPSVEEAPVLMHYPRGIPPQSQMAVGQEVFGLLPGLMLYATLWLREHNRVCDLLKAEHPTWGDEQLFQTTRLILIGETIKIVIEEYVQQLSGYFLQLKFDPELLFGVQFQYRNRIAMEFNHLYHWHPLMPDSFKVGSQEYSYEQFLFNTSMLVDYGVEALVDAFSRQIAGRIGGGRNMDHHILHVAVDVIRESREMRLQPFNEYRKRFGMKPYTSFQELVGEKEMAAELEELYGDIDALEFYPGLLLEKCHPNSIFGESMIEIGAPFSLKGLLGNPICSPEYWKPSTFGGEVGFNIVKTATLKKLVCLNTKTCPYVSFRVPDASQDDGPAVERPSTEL

IC50 [1] [µM]	IC50 [2] [µM]	Compound	half-life [3] [h]
> 100	–	Cc1ccc(-c2ncc(Cl)cc2-c2ccc(S(C)(=O)=O)cc2)cn1 [ETORICOXIB]	–
> 100	> 33	CS(=O)(=O)c1ccc(-c2cc(Cl)cnc2-c2ccc(CO[C@@H]3O[C@@H](C(=O)O)[C@@H](O)[C@H](O)[C@@H]3O)nc2)cc1	–
> 100	18	Cc1ccc(-c2ncc(Cl)cc2-c2ccc(S(C)(=O)=O)cc2)c[n+]1[O-]	–
> 100	> 33	CS(=O)(=O)c1ccc(-c2cc(Cl)cnc2-c2ccc(CO)nc2)cc1	–
> 100	21	CS(=O)(=O)c1ccc(-c2cc(Cl)cnc2-c2ccc(C(=O)O)nc2)cc1	–
–	–	CC(C)OC1=C(c2ccc(S(C)(=O)=O)cc2)C(C)(C)OC1=O	64
